# According to patent publication US20090105341A1, “PROCESS FOR THE PRODUCTION OF TRANS-10, CIS 12 OCTADECADIENOIC ACID” (Teagasc Dairy Products Research Centre, priority 2005, published 2009):
# Read-outs that look alike come from different tables or passages of the source.
# Columns and labels:
# [1] = tested on: SW480 cells; conditions: cited from earlier work; for Reduction of cell viability: SW480, Miller et al. (2002); for Effect on SW480 cancer cells: 2003
# [2] = tested on: MCF-7 breast cancer cell line; conditions: cited from earlier work; for Decrease in cell numbers / cell viability: MCF-7, 20 μg/ml for 8 days, O'Shea et al., 1999
# [3] = dairy cows, cited from earlier work
# [4] = tested on: human colon cancer cells SW480; assay: Anti-proliferative activity of fermented oils, MTS cell viability
# Protocol: The probiotic strain Lactobacillus paracasei ssp. paracasei NFBC 338 (Lb. paracasei NFBC 338) was previously isolated from the human gastrointestinal tract (GIT), and obtained from University College Cork, Ireland under a restricted materials transfer agreement. Lb. paracasei NFBC 338 was routinely cultured overnight (˜17 h) in MRS broth (Oxoid Ltd., Hampshire, UK) and incubated at 37° C. under anaerobic conditions using anaerobic jars containing Anaerocult A gas packs (Merck, Darmstedt, Germany). L. lactis carrying the plasmids pNZ44 were routinely cultured in the presence of chloramphenicol (5 μg/ml) as a selective marker. Lb. paracasei NFBC harboring the vector pMSP3535 were routinely cultured with erythromycin (10 μg/ml) as selective marker. E. coli TOP 10 (Invitrogen) harbouring the plasmid pNZ44 was cultured in LB (Luria-Bertani)-media supplemented with chloramphenicol (20 μg/ml). Human colon cancer cells were obtained from the American Type Culture Collection (ATCC, Manassas, Va., USA). The t10, c12 CLA isomer (98%+purity) was obtained from Matreya (Matreya Inc., PA, USA;). Cell culture media and supplements were purchased from Sigma Aldrich Ireland Ltd. (Dublin, Ireland), unless otherwise stated. SW480 cells were maintained in Dulbecco's […] (DMEM) supplemented with 5% (v/v) fetal bovine serum, 0.2 mM L-glutamine, 1 mM HEPES and 1 unit/ml penicillin and streptomycin. SW480 cells were grown in 96 well plates and maintained at 37° C. in a humidified atmosphere and a pH of 7.2-7.4 by a required flow of 95% air and 5% CO2.
# To examine the anti-proliferative activity of the oils extracted following fermentation of the cultures (L. lactis pNZ44-coPAI and E. coli pNZ44-coPAI) in respective media containing linoleic acid (0.5 mg/ml), human colon cancer cells SW480 were cultured in the presence of different concentrations of the fermented oils. Initially, 1×10^4 cells were seeded in wells and cultured for 24 h at 37° C. to allow the cells to adhere to the surface prior to treatment with 5-20 μg t10, c12 CLA (from fermented oils and t10, c12 CLA standards in ethanol) and 5-25 μg linoleic acid (control unfermented oil and Sigma standard)/ml of media. […] Control flasks were supplemented with ethanol to a final concentration of 0.1% (v/v). Following incubation for 5 days, cell viability was measured and relative cell number were determined using the MTS method (Promega Corporation, Madison, Wis., USA), a colorimetric method for determining the number of viable cells in proliferation or cytotoxicity assays subsequent to incubation with MTS tetrazolium compound. Following incubation with MTS for 2 h, the absorbance was recorded at 492 nm with a 96-well plate reader. Cell viability (%) after treatment is expressed relative to the ethanol control, which represented 100%.
# All figures are related to ethanol controls=100% cell viability.
smiles,measurement,setting,value
"CCCCCC/C=C/C=C\CCCCCCCC(=O)O [c9, t11 CLA, cis-9, trans-11-octadecadienoic acid]",Reduction of cell viability,[1],40-52%
same,Decrease in cell numbers / cell viability,[2],60%
same,Effect on milk fat,[3]; abomasal infusion,no effect
CCCCC/C=C\C/C=C\CCCCCCCC(=O)O [control-unfermented LA],Effect on the cell viability,"[4]; SW480, 5-25 μg/ml linoleic acid",only a minor effect
"CCCCC/C=C\C/C=C\CCCCCCCC(=O)O [linoleic acid, 9 cis, 12 cis-octadecadienoic acid]",Effect on SW480 cancer cells,"[1]; 16.9 μg/ml media (60.2 μM), Miller et al.",slightly proliferative effect
same,Effect on SW480 cancer cells,"[1]; 42.8 μg/ml media (152.5 μM), Miller et al.",anti-proliferative effect
same,Increase of viability,"[1]; SW480, same amount (16 μg/ml), 4 days",23%
same,viability at 25 µg/mL,"[4]; Homo sapiens, SW480, 120 h, read-out: Cell viability",93.2%
same,Difference in cell viability versus control-linoleic acid (unfermented oil),[4]; Student's t test,No significant difference
"CCCCC/C=C\C=C\CCCCCCCCC(=O)O [t10, c12 CLA, trans-10, cis-12 octadecadienoic acid]",Reduction of viability,"[1]; SW480, 4 days incubation with 16 μg/ml, Miller et al., 2001",50-60%
same,Reduction of cell viability,[1],47-61%
same,Decrease in cell numbers / cell viability,[2],15%
same,Reduction of viability,"[2]; MCF-7, 4 days incubation with 16 μg/ml, Miller et al., 2001",50-60%
same,Decrease in milk fat yield,[3]; 4 days abomasal infusion,44%
same,Reduction in milk fat percentage,[3]; 4 days abomasal infusion,42%
same,"Difference in cell viability versus L. lactis t10, c12 CLA",[4]; 10-15 μg/ml (p<0.001) and 20 μg/ml (p<0.01),significant difference
same,"Difference in cell viability versus E. coli t10, c12 CLA (fermented oil)","[4]; at any concentration, Student's t test",no significant difference
